{
  "source": "patent US20090131356A1",
  "about": "“miR-15, miR-26, miR-31, miR-145, miR-147, miR-188, miR-215, miR-216, miR-331, mmu-miR-292-3P REGULATED GENES AND PATHWAYS AS TARGETS FOR THERAPEUTIC INTERVENTION” (ASURAGEN, INC., priority 2006, published 2009)",
  "system": "human H460 lung cancer xenografts",
  "assay": "Established H460 lung tumor xenograft, intratumoral injection of lipid-formulated miRNA",
  "type": "in vivo, NOD/SCID mice",
  "conditions": "intratumoral 6.25 μg on days 11, 14 and 17, siPORT amine formulation; day 19",
  "source_text": "Delivery of hsa-miR-147 into human lung cancer cells prior to implantation into the animal inhibited the formation of lung tumor xenografts. […] To explore this possibility, 3×10^6 human H460 non-small cell lung cancer cells were mixed with BD Matrigel™, (BD Biosciences; San Jose, Calif., USA; cat. no. 356237) in a 1:1 ratio and subcutaneously injected into the lower back of each of 23 NOD/SCID mice (Charles River Laboratories, Inc.; Wilmington, Mass., USA). Once animals developed palpable tumors (day 11 post xenograft implantation), each animal in a group of six received intratumoral injections of 6.25 μg hsa-miR-147 (Dharmacon, Lafayette, Colo.) formulated with the lipid-based siPORT™ amine delivery agent (Ambion, Austin, Tex.; cat. no. AM4502) on days 11, 14 and 17. A control group of six animals each received intratumoral injections of 6.25 μg negative control miRNA (NC; Dharmacon, Lafayette, Colo.), following the same injection schedule that was used for hsa-miR-147. Given an average mouse weight of 20 g, this dose equals 0.3125 mg/kg. […] Caliper measurements of tumors were taken every 1-2 days, and tumor volumes were calculated using the formula, Volume=length×width×width/2, in which the length is greater than the width.",
  "data": [
    {"substance": "hsa-miR-147: Synthetic pre-miR-147 (Ambion AM17100; Dharmacon in vivo); mature sequence GUGUGUGGAAAUGCUUCUGC, MIMAT0000251, SEQ ID NO:114 (synthetic pre-miR (Ambion/Dharmacon), chemistry not given here; listed as Homo sapiens)", "values": [
      {"measurement": "average tumor size", "result": 260, "unit": "mm^3"}
    ]}
  ]
}
